# Measurements from US6624203B1, “Nucleic acid bases used in ophthalmic solutions” (priority 2001, dated 2003).
# Columns and labels:
# [1] = tested on: C. albicans; experiment: In vitro microbicidal activity against C. albicans (log reduction vs inoculum control); type: cell-based; conditions: 0.2% phosphate buffer, isotonic NaCl, PHMB 0.0001%, pH 7.2
# Method: A formulation containing guanine was prepared in a 0.2% phosphate buffer. The solution was made isotonic with sodium chloride and preserved with polyhexamethylene biquanide at 0.0001%. The pH was adjusted to 7.2 with either 1 N sodium hydroxide or 1 N hydrochloric acid. The in vitro microbicidal activity of the test and control solution was determined by exposing C. albicans to 10 ml of each solution at room temperature for 4 and 24 hours. Subsequently, an aliquot of each solution was serial diluted onto agar plates and incubated for 48 hours at elevated temperatures. At the conclusion of the incubation period the plates are examined for the development of colonies. The log reduction was determined based on a comparison to the inoculum control. The following table provides the results of the in vitro studies.
# [2] = tested on: Acanthamoeba castellanii cysts; experiment: In vitro anti-acanthamoeba activity (serial dilution, viable trophozoites, log reduction); type: cell-based; conditions: 0.5% guanine with PHMB 0.02% versus control without guanine
# Method: A formulation containing 0.5% guanine was prepared in a 0.2% glycine buffer at pH 7.35. The solution was preserved with polyhexamethylene biquanide at 0.02%. A similar control was prepared except without the guanine. The in vitro anti-acanthamoeba activity of the test and control solutions was determined by exposing Acanthamoeba castellanii cysts to 2 ml of each solution at room temperature for 10 minutes. Subsequently, an aliquot of each solution was serial diluted in duplicate and incubated for 14 days. At the conclusion of the incubation period, the dilutions were examined for viable Acanthamoeba trophozoites. The log reduction was determined based on a comparison to the inoculum control. A negative control was performed to verify the technique. The following table provides the results of the in vitro studies.
compound,measurement,setting,value
"Nc1nc2nc[nH]c2c(=O)[nH]1 [Guanine, guanine]","log reduction, 4 hours",[1]; C. albicans exposed to 10 ml solution at room temperature for 4 hours,0.97
same,"log reduction, 24 hours",[1]; C. albicans exposed to 10 ml solution at room temperature for 24 hours,3.05
same,Effect of guanine on activity of preserved formulations against Acanthamoeba,[2],improves the activity of preserved formulations against Acanthamoeba
